In patent publication US9040067B2, “Disinfecting and antimicrobial compositions” (priority 2005, dated 2015):

Experiment: Solubilization of dehydroacetic acid by ethyl lactate
Format: physicochemical
Conditions: 5.0 parts of dehydroacetic acid in 100 ml of ethyl lactate, room temperature

Compound: CC(=O)C1C(=O)C=C(C)OC1=O (stereo not shown) [dehydroacetic acid]
- solubility in ethyl lactate (appearance of solution): clear solution
